From US20230406840A1, “N-(2-(3-CYANO-2-AZABICYCLO[3.1.0]HEXAN-2-YL)-2-OXOETHYL)QUINOLINE-4-CARBOXAMIDES” (AstraZeneca AB, priority 2022, published 2023)
Converted amounts (≈) assume the structure as drawn. Read-outs that look alike come from different tables or passages of the source.

Columns and labels:
[1] = biological target: Prolyl Oligopeptidase (hPREP) (Homo sapiens (Human), UniProt P48147); assay: hPREP inhibition assay; format: biochemical; settings: hPREP 0.6 nM, Z-Gly-Pro-amino-methylcoumarin 50 μM; read-out: PREP IC50
Procedure: Compounds were tested in a biochemical inhibition assay using Prolyl endopeptidase, Prolyl Oligopeptidase (hPREP) enzyme at 0.6 nM FAC (R&D Systems, 4308-SE) and the substrate Z-Gly-Pro-amino-methylcoumarin (Bachem, I-1145) at 50 μM FAC. 384 Low volume black plates (Greiner #784076) were used. […] 4 μL, 100 μM substrate solution (25 mM Tris HCl, 250 mM NaCl, 0.01% Triton X-100, 5 mM Glutathione, pH 7.5) was added to each well. Plates were centrifuged at 1000 rpm and incubated for 20 min at rt in dark. […] Data were analyzed in Genedata Screener®.

hFAP = hFAP (Homo sapiens (Human), UniProt Q12884);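 also: fluorescence read after incubating enzyme with substrate at room temperature, IC50 fitted from percent inhibition against log concentration with a one-site model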
[2] = Metabolic stability in human liver microsomes (HLM); format: in vitro ADME
Procedure: Metabolic stability in HLM was measured as described in J Comput Aided Mol Des 2015, 29, 795.

Kinetic solubility = format: physicochemical
Procedure: Kinetic solubility was measured as described in Comput Aided Mol Des 2015, 29, 795.

[3] = biological target: human Fibroblast activation protein alpha (hFAP) (Homo sapiens (Human), UniProt Q12884); assay: hFAP inhibition assay (tight binders); format: biochemical; settings: tight-binder format, Ala-Pro-AMC 20 μM, 2.5 h incubation; n = 1 or geometric mean (n = 5-10)
Procedure: Data were analyzed in Genedata Screener®.

Rat Hepatocytes (rHep) = assay: Metabolic stability in rat hepatocytes (rHep); format: in vitro ADME
Procedure: Metabolic stability in rat hepatocytes was measured as described in J Comput Aided Mol Des 2015, 29, 795.

Human Hepatocytes (hHep) = assay: Metabolic stability in human hepatocytes (hHep); format: in vitro ADME
Procedure: Metabolic stability in human hepatocytes was measured as described in Xenobiotica 2010, 40, 637.

Prolyl Oligopeptidase (hPREP), sequence (P48147 whole entry): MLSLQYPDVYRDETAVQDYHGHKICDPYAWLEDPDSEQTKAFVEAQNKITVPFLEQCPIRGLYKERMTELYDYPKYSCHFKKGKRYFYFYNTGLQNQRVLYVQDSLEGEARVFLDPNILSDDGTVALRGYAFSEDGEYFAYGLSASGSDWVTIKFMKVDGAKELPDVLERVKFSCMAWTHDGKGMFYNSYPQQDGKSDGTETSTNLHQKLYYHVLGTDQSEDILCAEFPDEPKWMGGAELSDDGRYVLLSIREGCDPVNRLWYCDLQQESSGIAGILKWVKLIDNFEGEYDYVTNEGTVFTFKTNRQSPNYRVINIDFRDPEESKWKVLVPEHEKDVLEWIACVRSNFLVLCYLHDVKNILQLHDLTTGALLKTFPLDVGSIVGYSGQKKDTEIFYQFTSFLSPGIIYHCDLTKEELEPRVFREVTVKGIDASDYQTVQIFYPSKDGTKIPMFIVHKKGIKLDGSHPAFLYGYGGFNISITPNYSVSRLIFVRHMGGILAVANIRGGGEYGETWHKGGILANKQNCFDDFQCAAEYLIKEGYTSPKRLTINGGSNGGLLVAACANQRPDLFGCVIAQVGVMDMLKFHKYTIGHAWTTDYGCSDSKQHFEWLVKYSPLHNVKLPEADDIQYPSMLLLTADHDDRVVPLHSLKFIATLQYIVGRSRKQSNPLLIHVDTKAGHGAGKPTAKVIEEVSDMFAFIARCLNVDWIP
human Fibroblast activation protein alpha (hFAP), sequence (Q12884 38-760): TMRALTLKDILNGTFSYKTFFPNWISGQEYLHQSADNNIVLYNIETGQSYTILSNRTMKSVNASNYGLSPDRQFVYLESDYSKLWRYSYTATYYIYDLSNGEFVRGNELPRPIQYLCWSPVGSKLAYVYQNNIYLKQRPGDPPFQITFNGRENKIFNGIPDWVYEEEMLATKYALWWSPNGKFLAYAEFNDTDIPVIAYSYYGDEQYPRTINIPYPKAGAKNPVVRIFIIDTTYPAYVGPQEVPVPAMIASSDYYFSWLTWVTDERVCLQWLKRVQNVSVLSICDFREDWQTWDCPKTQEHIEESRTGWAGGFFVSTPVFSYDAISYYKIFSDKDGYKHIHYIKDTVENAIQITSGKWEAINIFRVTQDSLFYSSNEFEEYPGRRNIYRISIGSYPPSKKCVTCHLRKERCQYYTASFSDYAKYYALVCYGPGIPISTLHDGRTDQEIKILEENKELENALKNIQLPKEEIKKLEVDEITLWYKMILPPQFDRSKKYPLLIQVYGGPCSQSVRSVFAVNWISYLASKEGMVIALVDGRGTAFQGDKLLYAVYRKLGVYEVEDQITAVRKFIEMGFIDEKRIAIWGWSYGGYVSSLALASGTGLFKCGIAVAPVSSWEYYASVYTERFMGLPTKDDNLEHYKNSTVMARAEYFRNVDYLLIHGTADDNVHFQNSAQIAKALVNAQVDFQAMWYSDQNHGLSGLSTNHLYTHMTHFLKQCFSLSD
hFAP, sequence (Q12884 38-760): as above

Row | IC50 [1] [µM] | IC50 (hFAP) [nM] | microsomal CLint [2] [µL/min/mg] | solubility (Kinetic solubility; kinetic from dmso stock) [µM] | IC50 [3] [nM] | rHeps CLint (Rat Hepatocytes (rHep)) [μL/min/1E6] | hHep CLint (Human Hepatocytes (hHep)) [μL/min/1E6] | solubility (Kinetic solubility) [µM] | SMILES
1 | 22 | 64 | < 3 | > 1000 | 32 | 1.2 | <1 |  | Cc1cc(C(=O)NCC(=O)N2[C@H](C#N)C[C@@H]3C[C@@H]32)c2cc(F)ccc2n1 [Example 4, N-(2-((1S,3S,5S)-3-Cyano-2-azabicyclo[3.1.0]hexan-2-yl)-2-oxoethyl)-6-fluoro-2-methylquinoline-4-carboxamide]
2 | 18 | 65 | 11 | 140 (≈ 51.6 µg/mL) | 18 | 2.8 |  |  | Cc1cc(C(=O)NCC(=O)N2[C@H](C#N)C[C@@H]3C[C@@H]32)c2cc(Cl)ccc2n1 [Example 5, 6-Chloro-N-(2-((1S,3S,5S)-3-cyano-2-azabicyclo[3.1.0]hexan-2-yl)-2-oxoethyl)-2-methylquinoline-4-carboxamide]
3 | 13 | 58 | 23 | 61 (≈ 25.2 µg/mL) | 18 | 5.8 |  |  | Cc1cc(C(=O)NCC(=O)N2[C@H](C#N)C[C@@H]3C[C@@H]32)c2cc(Br)ccc2n1 [Example 6, 6-Bromo-N-(2-((1S,3S,5S)-3-cyano-2-azabicyclo[3.1.0]hexan-2-yl)-2-oxoethyl)-2-methylquinoline-4-carboxamide]
4 | 18 | 53 | 43 | 23 (≈ 10.6 µg/mL) | 15 | 12 |  |  | Cc1cc(C(=O)NCC(=O)N2[C@H](C#N)C[C@@H]3C[C@@H]32)c2cc(I)ccc2n1 [Example 7, N-(2-((1S,3S,5S)-3-Cyano-2-azabicyclo[3.1.0]hexan-2-yl)-2-oxoethyl)-6-iodo-2-methylquinoline-4-carboxamide]
5 | > 50 | 2.6 | < 3 | > 1000 | 0.91 | <1 |  |  | CC(O)c1ccc2nccc(C(=O)NCC(=O)N3[C@H](C#N)C[C@@H]4C[C@@H]43)c2c1 (stereo partly drawn) [Example 14, N-(2-((1S,3S,5S)-3-Cyano-2-azabicyclo[3.1.0]hexan-2-yl)-2-oxoethyl)-6-(1-hydroxyethyl)quinoline-4-carboxamide]
6 | > 50 | 80 | 120 | 800 (≈ 290 µg/mL) | 25 | 18 |  |  | CCc1ccc2nc(C)cc(C(=O)NCC(=O)N3[C@H](C#N)C[C@@H]4C[C@@H]43)c2c1 [Example 18, N-(2-((1S,3S,5S)-3-Cyano-2-azabicyclo[3.1.0]hexan-2-yl)-2-oxoethyl)-6-ethyl-2-methylquinoline-4-carboxamide]
7 | 43 | 80 | 12 | > 1000 | 33 | <1 |  |  | Cc1ccc2nc(C)cc(C(=O)NCC(=O)N3[C@H](C#N)C[C@@H]4C[C@@H]43)c2c1 [Example 19, N-(2-((1S,3S,5S)-3-Cyano-2-azabicyclo[3.1.0]hexan-2-yl)-2-oxoethyl)-2,6-dimethylquinoline-4-carboxamide]
8 | > 50 | < 1.8 | < 3 | 960 (≈ 350 µg/mL) | 0.37 | <1 |  |  | CC(O)c1ccc2c(C(=O)NCC(=O)N3[C@H](C#N)C[C@@H]4C[C@@H]43)ccnc2c1 (stereo partly drawn) [Example 25, N-(2-((1S,3S,5S)-3-Cyano-2-azabicyclo[3.1.0]hexan-2-yl)-2-oxoethyl)-7-(1-hydroxyethyl)quinoline-4-carboxamide]
9 | > 50 | 2.1 | < 3 | > 1000 | 0.7 | <1 |  |  | CC(C)(O)c1ccc2c(C(=O)NCC(=O)N3[C@H](C#N)C[C@@H]4C[C@@H]43)ccnc2c1 [Example 26, N-(2-((1S,3S,5S)-3-Cyano-2-azabicyclo[3.1.0]hexan-2-yl)-2-oxoethyl)-7-(2-hydroxypropan-2-yl)quinoline-4-carboxamide]
10 | > 50 | 3.1 | 42 | 200 (≈ 86.5 µg/mL) | 0.41 | 16 |  |  | CC(OC(F)(F)F)c1ccc2c(C(=O)NCC(=O)N3[C@H](C#N)C[C@@H]4C[C@@H]43)ccnc2c1 (stereo partly drawn) [Example 30, N-(2-((1S,3S,5S)-3-Cyano-2-azabicyclo[3.1.0]hexan-2-yl)-2-oxoethyl)-7-(1-(trifluoromethoxy)ethyl)quinoline-4-carboxamide]
11 | > 50 | 2 | 46 | 37 (≈ 13.9 µg/mL) |  | 72 |  |  | CC1(c2ccc3c(C(=O)NCC(=O)N4[C@H](C#N)C[C@@H]5C[C@@H]54)ccnc3c2)CC1 [Example 32, N-(2-((1S,3S,5S)-3-Cyano-2-azabicyclo[3.1.0]hexan-2-yl)-2-oxoethyl)-7-(1-methylcyclopropyl)quinoline-4-carboxamide]
12 |  | 1.4 | 170 | 700 (≈ 293 µg/mL) |  | 9.8 | 25 |  | N#C[C@@H]1C[C@@H]2C[C@@H]2N1C(=O)CNC(=O)c1ccnc2ccc(OCC(F)(F)F)cc12 [Example 33, N-(2-((1S,3S,5S)-3-Cyano-2-azabicyclo[3.1.0]hexan-2-yl)-2-oxoethyl)-6-(2,2,2-trifluoroethoxy)quinoline-4-carboxamide]
13 | > 50 | 1.3 | 190 | 430 (≈ 195 µg/mL) |  | 55 |  |  | N#C[C@@H]1C[C@@H]2C[C@@H]2N1C(=O)CNC(=O)c1ccnc2ccc(OC3CCC(F)(F)CC3)cc12 [Example 38, N-(2-((1S,3S,5S)-3-Cyano-2-azabicyclo[3.1.0]hexan-2-yl)-2-oxoethyl)-6-((4,4-difluorocyclohexyl)oxy)quinoline-4-carboxamide]
14 | > 50 | 1.5 | 77 | 960 (≈ 388 µg/mL) | 0.41 | 13 |  |  | CCOC1(c2ccc3c(C(=O)NCC(=O)N4[C@H](C#N)C[C@@H]5C[C@@H]54)ccnc3c2)CC1 [Example 39, N-(2-((1S,3S,5S)-3-Cyano-2-azabicyclo[3.1.0]hexan-2-yl)-2-oxoethyl)-7-(1-ethoxycyclopropyl)quinoline-4-carboxamide]
15 |  | 5.6 |  |  |  |  |  |  | N#C[C@@H]1C[C@@H]2C[C@@H]2N1C(=O)CNC(=O)c1ccnc2ccc(C3CC3)cc12 [Example 42, N-(2-((1S,3S,5S)-3-Cyano-2-azabicyclo[3.1.0]hexan-2-yl)-2-oxoethyl)-6-cyclopropylquinoline-4-carboxamide]
16 |  |  |  |  |  |  |  | 590 (≈ 213 µg/mL) | N#C[C@@H]1C[C@@H]2C[C@@H]2N1C(=O)CNC(=O)c1ccnc2cc(C3CC3)ccc12 [Example 47, N-(2-((1S,3S,5S)-3-Cyano-2-azabicyclo[3.1.0]hexan-2-yl)-2-oxoethyl)-7-cyclopropylquinoline-4-carboxamide]
17 | 0.0071 |  |  |  |  |  |  |  | N#C[C@@H]1CSCN1C(=O)CNC(=O)c1ccnc2ccccc12 [Reference Compound C, (R)-N-(2-(4-cyanothiazolidin-3-yl)-2-oxoethyl)-quinoline-4-carboxamide, reference compound]
